Experimental data taken from US11857515B2, “Branched amino acid surfactants for use in healthcare products” (AdvanSix Resins & Chemicals LLC, priority 2020, dated 2024).
Several values for one entry are separate records, joined by “and”; a condition that tells them apart may be missing. Identical values can stand only once.

Experiments:
Assay type in all cases: physicochemical
[1] = Critical micelle concentration (CMC) from surface tension versus concentration, Wilhelmy plate method; conditions: for surface tension at the CMC: from plot of surface tension versus concentration; for surface tension at the CMC / minimum surface tension that can be reached (plateau / asymptotic value): pH=7; for minimum surface tension that can be reached (plateau / asymptotic value) / critical micelle concentration (CMC): in water
Description: As surfactant concentration increases, surface tension decreases. Once the surface is completely overlaid with surfactant molecules, micelles begin to form. This point represents the CMC, as well as the minimum surface tension. Further addition of surfactant will not further affect the surface tension. CMC may therefore be measured by observing the change in surface tension as a function of surfactant concentration. One such method for measuring this value is the Wilhemy plate method. A Wilhelmy plate is usually a thin iridium-platinum plate attached to a balance by a wire and placed perpendicularly to the air-liquid interface. The balance is used to measure the force exerted on the plate by wetting. This value is then used to calculate the surface tension (γ) according to Equation 1: γ=F/I cos θ Equation 1: wherein I is equal to the wetted perimeter (2w+2d, in which w and d are the […], respectively) and cos θ, the contact angle between the liquid and the plate, is assumed to be 0 in the absence of an extant literature value.
(§1) Nuclear magnetic resonance (NMR) spectroscopy was performed on a Bruker 500 MHz spectrometer. The critical micelle concentration (CMC) was determined by the Wilhelmy plate method at 23° C. with a tensiometer (DCAT 11, DataPhysics Instruments GmbH) equipped with a Pt—Ir plate. Dynamic surface tension was determined with a bubble pressure tensiometer (Krüss BP100, Krüss GmbH), at 23° C. Contact angle was determined with the optical contact angle goniometer (OCA 15 Pro, DataPhysics GmbH) equipped with a digital camera.
The critical micelle concentration (CMC) of the 6-((2-butyloctyl)oxy)-N,N,N-trimethyl-6-oxohexan-1-aminium iodide from Example 1a was tested. […] From the plot of the results, the surface tension at the CMC is equal to or less than about 27 mN/m.
The critical micelle concentration (CMC) of the 6-((2-butyloctyl)oxy)-N,N-dimethyl-6-oxohexan-1-aminium 4-methylbenzenesulfonate from Example 2a was tested. From the change in surface tension with concentration in water, the CMC was determined to be about 0.97 mmol. The plateau value of minimum surface tension that can be reached by this surfactant is about 27 mN/m, namely 27 mN/m±3 mN/m. […] From the plot of the results, the surface tension at the CMC is equal to or less than about 30 mN/m.

[2] = Dynamic surface tension, bubble pressure tensiometer; conditions: 23° C.
Description: One method by which dynamic surface tension is measured relies upon a bubble pressure tensiometer. This device measures the maximum internal pressure of a gas bubble that is formed in a liquid by means of a capillary. The measured value corresponds to the surface tension at a certain surface age, the time from the start of the bubble formation to the occurrence of the pressure maximum. The dependence of surface tension on surface age can be measured by varying the speed at which bubbles are produced.
as §1
The dynamic surface tension of the 6-((2-butyloctyl)oxy)-N,N-dimethyl-6-oxohexan-1-aminium 4-methylbenzenesulfonate from Example 2a was determined with a bubble pressure tensiometer which measures the change of surface tension of a freshly created air-water interface with time. FIG. 2B presents a plot of the surface tension versus time, showing that surface tension in the time interval between 10 and 100 ms drops rapidly from about 46 mN/m to about 30 mN/m. In the time interval from 100 to 8,000 ms, the surface tension drops slowly from 30 mN/m to about 27 mN/m, approaching asymptotically the saturation value of the surface tension at the CMC.

[3] = Wetting properties: contact angle on solid substrates, optical contact angle goniometer; conditions: 10x CMC
Description: Surface-active compounds may also be assessed by their wetting ability on solid substrates as measured by the contact angle. When a liquid droplet comes in contact with a solid surface in a third medium, such as air, a three-phase line forms among the liquid, the gas and the solid. The angle between the surface tension unit vector, acting at the three-phase line and tangent at the liquid droplet, and the surface is described as the contact angle. The contact angle (also known as wetting angle) is a measure of the wettability of a solid by a liquid. In the case of complete wetting, the liquid is completely spread over the solid and the contact angle is 0°. Wetting properties are typically measured for a given compound at the concentration of 1-10×CMC, however, it is not a property that is concentration-dependent therefore measurements of wetting properties can be measured at concentrations that are higher or lower.
In one method, an optical contact angle goniometer may be used to measure the contact angle. This device uses a digital camera and software to extract the contact angle by analyze the contour shape of a sessile droplet of liquid on a surface.
as §1
In addition to surface tension and surface dynamics, the wetting properties of the 6-((2-butyloctyl)oxy)-N,N-dimethyl-6-oxohexan-1-aminium 4-methylbenzenesulfonate from Example 2a were tested on various surfaces.

[4] = substrate Polyethylene terephthalate

Row | critical micelle concentration (CMC), not clearly determined up to this concentration ([1]; 23° C., pH=7, Wilhelmy plate) [mg/mL] | surface tension at the CMC [1] [mN/m] | minimum surface tension that can be reached (plateau / asymptotic value) ([1]; 23° C.) | dynamic surface tension ([2]; surface age 10 ms) | dynamic surface tension ([2]; surface age 100 ms) | dynamic surface tension ([2]; surface age 8,000 ms) | CA of Surfactant (contact angle) ([3]; substrate Nylon) [°] | CA of Surfactant (contact angle) [3, 4] [°] | CA of Surfactant (contact angle) ([3]; substrate Polyethylene-HD) | CA of Surfactant (contact angle) ([3]; substrate Teflon) | critical micelle concentration (CMC) ([1]; 23° C., pH=7, Wilhelmy plate) | dynamic surface tension ([2]; surface age 1,000 ms) | surface tension ([1]; at a concentration of about 1.0 mmol or greater) [mN/m] | Structure (SMILES)
1 | > 10 | ≤ 27 | about 27 mN/m |  |  |  |  |  |  |  |  |  |  | CCCCCCC(CCCC)COC(=O)CCCCC[N+](C)(C)C.[I-] (stereo not shown) [Example 1a, 6-((2-butyloctyl)oxy)-N,N,N-trimethyl-6-oxohexan-1-aminium iodide]
2 |  | ≤ 30 | about 27 mN/m | about 46 mN/m | about 30 mN/m | about 27 mN/m | 13.5 | 7.7 | 24.3 ° | 48.2 ° | about 0.97 mmol |  |  | CCCCCCC(CCCC)COC(=O)CCCCCN(C)C.Cc1ccc(S(=O)(=O)O)cc1 (stereo not shown) [Example 2a, 6-((2-butyloctyl)oxy)-N,N-dimethyl-6-oxohexan-1-aminium 4-methylbenzenesulfonate]
3 |  |  | about 29 mN/m |  |  |  |  |  |  |  |  |  |  | CCCCCCC(CCCC)COC(=O)CCCCCN(C)C.Cl (stereo not shown) [Example 3a, 6-((2-butyloctyl)oxy)-N,N-dimethyl-6-oxohexan-1-aminium chloride]
4 |  | ≤ 32 | about 32 mN/m | about 66 mN/m | about 36 mN/m | about 32 mN/m | 28.7 | 29.8 | 44.4 ° | 62.2 ° | about 0.54 mmol |  |  | CCCCCCC(CCCC)COC(=O)CCCCC[N+](C)(C)CCCCS(=O)(=O)[O-] (stereo not shown) [Example 4a, 4-((6-((2-butyloctyl)oxy)-6-oxohexyl)dimethylammonio)butane-1-sulfonate]
5 |  | ≤ 28 | about 28 mN/m | about 60 mN/m |  | about 28 mN/m | 38.5 | 9.2 | 31.6 ° and 31.9 ° | 41.5 ° and 41.0 ° | about 0.29 mmol | about 30 mN/m |  | CCCCCCC(CCCC)COC(=O)CCCCC[N+](C)(C)[O-] (stereo not shown) [Example 5a, 2-butyloctyl 6-(dimethylamino)hexanoate N-oxide]
6 |  | ≤ 30 | about 27 mN/m | about 69 mN/m |  | about 29 mN/m | 24.5 | 20.1 | 25.8 ° | 48.7 ° | about 0.15 mmol | about 49 mN/m |  | CCCCCCC(CCCC)COC(=O)CCCCCN.Cl (stereo not shown) [Example 6a, 6-((2-butyloctyl)oxy)-6-oxohexan-1-aminium chloride]
7 |  | ≤ 30 | about 27 mN/m | about 46 mN/m | about 30 mN/m | about 27 mN/m | 12.6 | 13.2 | 14.6 ° | 49.4 ° | about 2.12 mmol |  | ≤ 28.5 | CCCCCCC(CCCC)COC(=O)CCCCCN.Cc1ccc(S(=O)(=O)O)cc1 (stereo not shown) [Example 7a, 6-((2-butyloctyl)oxy)-6-oxohexan-1-aminium 4-methylbenzenesulfonate]
